Converted amounts (≈) assume the structure as drawn.
Key:
Staphylococcus aureus = assay: Antibacterial activity against Staphylococcus aureus MTCC 96 by broth dilution method; type: functional
Escherichia coli = assay: Antibacterial activity against Escherichia coli MTCC 443 by broth dilution method; type: functional
Salmonella typhimurium = assay: Antibacterial activity against Salmonella enterica typhimurium MTCC 98 by broth dilution method; type: functional, Salmonella enterica subsp. enterica serovar Typhimurium
Bacillus subtilis = assay: Antibacterial activity against Bacillus subtilis MTCC 441 by broth dilution method; type: functional
Candida albicans = assay: Antifungal activity against Candida albicans MTCC 227 by broth dilution method; type: functional
Aspergillus niger = assay: Antifungal activity against Aspergillus niger MTCC 282 by broth dilution method; type: functional

| Compound | MIC (Staphylococcus aureus) [µg/mL] | MIC (Escherichia coli) [µg/mL] | MIC (Salmonella typhimurium) [µg/mL] | MIC (Bacillus subtilis) [µg/mL] | MIC (Candida albicans) [µg/mL] | MIC (Aspergillus niger) [µg/mL] |
| --- | --- | --- | --- | --- | --- | --- |
| CC1(C)S[C@@H]2[C@H](NC(=O)[C@H](N)c3ccccc3)C(=O)N2[C@H]1C(=O)O [AMPICILLIN] | 250 (≈ 715 µM) | 100 (≈ 286 µM) | 100 (≈ 286 µM) | 250 (≈ 715 µM) | – | – |
| Cc1ccc2oc(=O)c3ccc(-c4cc5ccccc5oc4=O)nc3c2c1 | 250 (≈ 704 µM) | 125 (≈ 352 µM) | 125 (≈ 352 µM) | 200 (≈ 563 µM) | 500 (≈ 1410 µM) | > 1000 |
| COC1=CC(=O)C[C@@H](C)[C@]12Oc1c(Cl)c(OC)cc(OC)c1C2=O [GRISEOFULVIN] | – | – | – | – | 500 (≈ 1420 µM) | 100 (≈ 283 µM) |
| O=c1oc2ccc3ccccc3c2cc1-c1ccc2c(=O)oc3ccccc3c2n1 | 100 (≈ 256 µM) | 250 (≈ 639 µM) | 200 (≈ 511 µM) | 125 (≈ 319 µM) | 250 (≈ 639 µM) | > 1000 |
| Cc1cccc2c1oc(=O)c1ccc(-c3cc4c(ccc5ccccc54)oc3=O)nc12 | 100 (≈ 247 µM) | 62.5 (≈ 154 µM) | 100 (≈ 247 µM) | 125 (≈ 308 µM) | 1000 (≈ 2470 µM) | > 1000 |
| Cc1ccc2oc(=O)c3ccc(-c4cc5c(ccc6ccccc65)oc4=O)nc3c2c1 | 62.5 (≈ 154 µM) | 250 (≈ 617 µM) | 250 (≈ 617 µM) | 200 (≈ 493 µM) | 1000 (≈ 2470 µM) | 500 (≈ 1230 µM) |
| COc1cccc2cc(-c3ccc4c(=O)oc5ccccc5c4n3)c(=O)oc12 | 100 (≈ 269 µM) | 200 (≈ 539 µM) | 250 (≈ 673 µM) | 200 (≈ 539 µM) | 1000 (≈ 2690 µM) | 1000 (≈ 2690 µM) |
| O=c1oc2ccccc2cc1-c1ccc2c(=O)oc3ccc(Cl)cc3c2n1 | 125 (≈ 333 µM) | 125 (≈ 333 µM) | 100 (≈ 266 µM) | 200 (≈ 532 µM) | > 1000 | > 1000 |
| COc1cccc2cc(-c3ccc4c(=O)oc5c(C)cccc5c4n3)c(=O)oc12 | 250 (≈ 649 µM) | 250 (≈ 649 µM) | 250 (≈ 649 µM) | 125 (≈ 324 µM) | 200 (≈ 519 µM) | > 1000 |
| COc1cccc2cc(-c3ccc4c(=O)oc5ccc(Cl)cc5c4n3)c(=O)oc12 | 200 (≈ 493 µM) | 200 (≈ 493 µM) | 250 (≈ 616 µM) | 62.5 (≈ 154 µM) | > 1000 | 500 (≈ 1230 µM) |
| NYSTATIN | – | – | – | – | 100 | 100 |
| COc1cccc2cc(-c3ccc4c(=O)oc5ccc(C)cc5c4n3)c(=O)oc12 | 100 (≈ 259 µM) | 250 (≈ 649 µM) | 200 (≈ 519 µM) | 62.5 (≈ 162 µM) | 1000 (≈ 2590 µM) | 500 (≈ 1300 µM) |
| CCn1cc(C(=O)O)c(=O)c2cc(F)c(N3CCNCC3)cc21 [NORFLOXACIN] | 10 (≈ 31.3 µM) | 10 (≈ 31.3 µM) | 10 (≈ 31.3 µM) | 100 (≈ 313 µM) | – | – |
| O=c1oc2ccccc2cc1-c1ccc2c(=O)oc3ccccc3c2n1 | 200 (≈ 586 µM) | 125 (≈ 366 µM) | 200 (≈ 586 µM) | 250 (≈ 732 µM) | 1000 (≈ 2930 µM) | 500 (≈ 1460 µM) |
| O=c1oc2ccc3ccccc3c2cc1-c1ccc2c(=O)oc3ccc(Cl)cc3c2n1 | 62.5 (≈ 147 µM) | 62.5 (≈ 147 µM) | 100 (≈ 235 µM) | 200 (≈ 470 µM) | 500 (≈ 1170 µM) | 1000 (≈ 2350 µM) |
| Cc1cccc2c1oc(=O)c1ccc(-c3cc4ccccc4oc3=O)nc12 | 200 (≈ 563 µM) | 200 (≈ 563 µM) | 250 (≈ 704 µM) | 250 (≈ 704 µM) | 500 (≈ 1410 µM) | > 1000 |

— ChEMBL document CHEMBL3046207, “Synthesis of a new series of 2-(2-oxo-2H-chromen-3-yl)-5H-chromeno[4,3-b]pyridin-5-ones by two facile methods and evaluation of their antimicrobial activity” (2013)
